These results are taken from ChEMBL document CHEMBL1152284, “The contribution of plukenetione A to the anti-tumoral activity of Cuban propolis” (Bioorg Med Chem, 2008).

A word on the IC50: it is the concentration needed to halve the response being measured.

The test system of test [1] is A2780. Kind of test: Cytotoxicity against doxorubicin-resistant human A2780 cells after 24 hrs. In kind it is functional, cell-based. Particulars: A2780, 24 h.
Test [2] concerns PC-3. Kind of test: Cytotoxicity against human PC3 cells after 24 hrs. In kind it is functional, cell-based. Particulars: PC-3, 24 h.
Test [3] is described as follows: Cytotoxicity against etoposide-resistant human LAN1 cells after 24 hrs. Type of test: functional, cell-based. Particulars: LAN1, 24 h.
The test system of test [4] is A2780. Kind of test: Cytotoxicity against cisplatin-resistant human A2780 cells after 24 hrs. Type of test: functional, cell-based. Particulars: A2780, 24 h.
Test [5] concerns NCI-H460. Kind of test: Cytotoxicity against human H460 cells after 24 hrs. Type of test: functional, cell-based. The note with it: NCI-H460, 24 h.
The subject of test [6] is K562. Kind of test: Cytotoxicity against human K562 cells after 24 hrs. Type of test: functional, cell-based. The note with it: K562, 24 h.
Test [7] is described as follows: Cytotoxicity against human LAN1 cells after 24 hrs. In kind it is functional, cell-based. The note with it: LAN1, 24 h.
Test [8] concerns LNCaP. Kind of test: Cytotoxicity against etoposide-resistant human LNCAP cells after 24 hrs. In kind it is functional, cell-based.
For test [9], the system named is MCF7. Kind of test: Cytotoxicity against human MCF7 cells after 24 hrs. Type of test: functional, cell-based. Particulars: MCF7, 24 h.
The test system of test [10] is HT-29. Kind of test: Cytotoxicity against SN38-resistant human HT-29 cells after 24 hrs. The note with it: HT-29, 24 h. Type of test: functional, cell-based.
The test system of test [11] is HT-29. Kind of test: Cytotoxicity against human HT-29 cells after 24 hrs. Type of test: functional, cell-based. Particulars: HT-29, 24 h.
A short description of test [12]: Cytotoxicity against 5-FU-resistant human LAN1 cells after 24 hrs. In kind it is functional, cell-based. Particulars: LAN1, 24 h.
Test [13] relates to MCF7. Kind of test: Cytotoxicity against 5-FU-resistant human MCF7 cells after 24 hrs. Type of test: functional, cell-based. Particulars: MCF7, 24 h.
The test system of test [14] is HCT-8. Kind of test: Cytotoxicity against SN38-resistant human HCT8 cells after 24 hrs. In kind it is functional, cell-based. The note with it: HCT-8, 24 h.
The nature of test [15]: Cytotoxicity against cisplatin-resistant human LAN1 cells after 24 hrs. The note with it: LAN1, 24 h. In kind it is functional, cell-based.
The test system of test [16] is HEK293. Kind of test: Cytotoxicity against HEK293 cells after 24 hrs. Type of test: cell-based. The note with it: Homo sapiens, HEK293, 24 h.
Test [17] is described as follows: Cytotoxicity against cisplatin-resistant human M51 cells after 24 hrs. In kind it is functional, cell-based. Particulars: M51, 24 h.
Test [18] concerns MCF7. Kind of test: Cytotoxicity against doxorubicin-resistant human MCF7 cells after 24 hrs. In kind it is functional, cell-based. The note with it: MCF7, 24 h.
A short description of test [19]: Cytotoxicity against human M51 cells after 24 hrs. In kind it is functional, cell-based. Particulars: M51, 24 h.
Test [20] relates to HT-29. Kind of test: Cytotoxicity against 5-FU-resistant human HT-29 cells after 24 hrs. Type of test: functional, cell-based. The note with it: HT-29, 24 h.
The test system of test [21] is Jurkat. Kind of test: Cytotoxicity against human Jurkat cells after 24 hrs. In kind it is functional, cell-based.
The test system of test [22] is HCT-8. Kind of test: Cytotoxicity against raltitrexed-resistant human HCT8 cells after 24 hrs. In kind it is functional, cell-based. Particulars: HCT-8, 24 h.
The test system of test [23] is HCT-8. Kind of test: Cytotoxicity against human HCT8 cells after 24 hrs. Type of test: functional, cell-based. The note with it: HCT-8, 24 h.
For test [24], the system named is A2780. Kind of test: Cytotoxicity against human A2780 cells after 24 hrs. Type of test: functional, cell-based. Particulars: A2780, 24 h.
For test [25], the system named is LNCaP. Kind of test: Cytotoxicity against human LNCAP cells after 24 hrs. Type of test: functional, cell-based.
Test [26] can be described thus: Cytotoxicity against human […] cells after 24 hrs. In kind it is cell-based.
A short description of test [27]: Antimetastatic activity in mouse EAC cells xenografted in NMRI mouse assessed as metastatic colony formation in lungs at 20 mg/kg, ip daily for 9 days relative to control. The note with it: route intraperitoneal. In kind it is functional, Ehrlich.
The nature of test [28]: Inhibition of HIV reverse transcriptase. Further details: species or system Human immunodeficiency virus.
In test [29] the target is T1, DNA topoisomerase 1 (Homo sapiens) (UniProt P11387).
T1 sequence (whole entry): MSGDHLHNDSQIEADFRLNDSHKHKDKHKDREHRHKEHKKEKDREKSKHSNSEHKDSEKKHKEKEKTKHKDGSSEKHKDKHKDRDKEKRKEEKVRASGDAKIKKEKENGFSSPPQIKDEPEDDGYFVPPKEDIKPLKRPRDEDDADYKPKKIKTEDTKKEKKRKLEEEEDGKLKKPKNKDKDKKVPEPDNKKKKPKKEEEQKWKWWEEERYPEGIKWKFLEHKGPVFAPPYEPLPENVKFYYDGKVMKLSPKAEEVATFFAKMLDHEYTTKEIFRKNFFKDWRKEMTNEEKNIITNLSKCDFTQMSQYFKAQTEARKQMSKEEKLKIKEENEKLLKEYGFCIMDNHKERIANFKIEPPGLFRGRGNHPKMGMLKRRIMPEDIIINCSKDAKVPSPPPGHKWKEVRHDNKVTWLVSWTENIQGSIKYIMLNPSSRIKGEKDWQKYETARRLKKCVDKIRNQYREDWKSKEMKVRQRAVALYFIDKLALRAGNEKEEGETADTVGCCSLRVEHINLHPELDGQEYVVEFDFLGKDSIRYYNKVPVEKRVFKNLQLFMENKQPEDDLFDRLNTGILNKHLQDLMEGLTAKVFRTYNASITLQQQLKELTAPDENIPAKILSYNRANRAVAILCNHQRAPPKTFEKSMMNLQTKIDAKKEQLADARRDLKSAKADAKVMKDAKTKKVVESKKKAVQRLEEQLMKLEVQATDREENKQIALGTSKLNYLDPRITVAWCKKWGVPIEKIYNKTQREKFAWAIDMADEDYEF
Kind of test: Inhibition of human topoisomerase 1-mediated relaxation of supercoiled pBR322 DNA up to 6.25 ug/mL after 30 mins by agarose gel electrophoresis.

The target of test [30] is T1, DNA topoisomerase 1 (Homo sapiens). Kind of test: Inhibition of human topoisomerase 1-mediated relaxation of supercoiled pBR322 DNA up to 12.5 ug/mL after 30 mins by agarose gel electrophoresis.
Test [31] deals with HCT-8. Kind of test: Decrease in multidrug-resistant related protein gene expression in human HCT8 cells at 2.5 times IC50 after 24 hrs by RT-PCR. In kind it is functional, cell-based.
The subject of test [32] is HCT-8. Kind of test: Cell cycle arrest in human HCT8 cells assessed as accumulation at G2/M phase at IC50 after 24 hrs by FACS analysis relative to control. In kind it is functional. (A flow cytometer gives signals particle by particle.)
In test [33] the test system is HCT-8. Kind of test: Induction of late apoptosis in [14C]D-thymidine labeled human HCT8 cells assessed DNA fragmentation treated at 2.5 times IC50 for 8 hrs measured after 24 hrs by liquid scintillation counter. In kind it is functional, cell-based.
In test [34] the test system is HCT-8. Kind of test: Cell cycle arrest in human HCT8 cells assessed as accumulation at S phase at IC50 after 24 hrs by FACS analysis relative to control. Type of test: functional.
Test [35] has as its system HCT-8. Kind of test: Decrease in topoisomerase 2 beta gene expression in human HCT8 cells at 2.5 times IC50 after 24 hrs by RT-PCR. In kind it is functional, cell-based.
The subject of test [36] is HCT-8. Kind of test: Cell cycle arrest in human HCT8 cells assessed as accumulation at G0/G1 phase at IC50 after 24 hrs by FACS analysis relative to control. In kind it is functional.
In test [37] the target is DNA polymerase I, thermostable (Thermus aquaticus, UniProt P19821). Kind of test: Inhibition of Taq DNA polymerase.
A short description of test [38]: Inhibition of Moloney murine leukemia virus reverse transcriptase.
Test [39] deals with HCT-8. Kind of test: Induction of late apoptosis in [14C]D-thymidine labeled human HCT8 cells assessed DNA fragmentation treated at 10 times IC50 for 8 hrs measured after 24 hrs by liquid scintillation counter. In kind it is functional, cell-based.
Test [40] relates to HCT-8. Kind of test: Decrease in EGF receptor gene expression in human HCT8 cells at 2.5 times IC50 after 24 hrs by RT-PCR. In kind it is functional, cell-based.

SMILES strings stand for the structures. Converted amounts (≈) assume the structure as drawn. The source made the active and inactive calls. The rule behind the calls is not given here.

Sequence of DNA polymerase I, thermostable (P19821 whole entry): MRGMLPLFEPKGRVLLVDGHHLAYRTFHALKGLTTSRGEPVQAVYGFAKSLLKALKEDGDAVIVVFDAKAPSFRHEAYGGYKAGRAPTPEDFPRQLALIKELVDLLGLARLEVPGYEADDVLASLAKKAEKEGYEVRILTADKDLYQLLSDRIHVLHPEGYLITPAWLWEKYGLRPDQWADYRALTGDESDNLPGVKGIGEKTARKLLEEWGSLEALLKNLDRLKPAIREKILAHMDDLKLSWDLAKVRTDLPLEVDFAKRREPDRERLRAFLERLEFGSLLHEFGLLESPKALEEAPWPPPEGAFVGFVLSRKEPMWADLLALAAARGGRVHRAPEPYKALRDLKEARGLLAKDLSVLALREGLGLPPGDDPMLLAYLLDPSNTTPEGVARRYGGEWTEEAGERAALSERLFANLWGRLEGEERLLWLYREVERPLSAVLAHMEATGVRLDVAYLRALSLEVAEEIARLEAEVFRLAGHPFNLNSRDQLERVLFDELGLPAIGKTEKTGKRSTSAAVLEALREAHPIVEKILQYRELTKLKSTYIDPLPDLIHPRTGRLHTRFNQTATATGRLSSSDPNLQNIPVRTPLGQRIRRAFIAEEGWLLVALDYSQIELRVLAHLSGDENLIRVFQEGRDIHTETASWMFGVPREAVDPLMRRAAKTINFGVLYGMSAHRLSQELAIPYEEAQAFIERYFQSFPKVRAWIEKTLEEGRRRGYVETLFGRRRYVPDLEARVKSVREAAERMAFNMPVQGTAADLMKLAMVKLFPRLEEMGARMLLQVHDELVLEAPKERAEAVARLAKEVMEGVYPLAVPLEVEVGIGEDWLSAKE

`CC(C)=CCC1=C(O)[C@@]2(C(=O)c3ccccc3)C(=O)[C@](CC=C(C)C)(C[C@H](CC=C(C)C)C2(C)C)C1=O`: the IC50 in [1] came to 6.75 µg/mL (≈ 13.4 µM); in test [2], 2.01 µg/mL (≈ 4 µM); in test [3] it was 9.18 µg/mL (≈ 18.3 µM); in [4], 6.23 µg/mL (≈ 12.4 µM); in test [5], 4.21 µg/mL (≈ 8.37 µM); in test [6], 4.2 µg/mL (≈ 8.35 µM). For the same compound, the IC50 in test [7] amounted to 8.2 µg/mL (≈ 16.3 µM); in test [8], 1.81 µg/mL (≈ 3.6 µM); in test [9] it was 4.37 µg/mL (≈ 8.69 µM); in test [10], 3.5 µg/mL (≈ 6.96 µM); in test [11] it was 5.25 µg/mL (≈ 10.4 µM); in test [12], 8.24 µg/mL (≈ 16.4 µM). In addition, the IC50 worked out at 3.3 µg/mL (≈ 6.56 µM) in test [13]; 4.07 µg/mL (≈ 8.1 µM) in [14]; 8.44 µg/mL (≈ 16.8 µM) in test [15]; 4.2 µg/mL (≈ 8.35 µM) in [16]; 4.77 µg/mL (≈ 9.49 µM) in test [17]; 4.28 µg/mL (≈ 8.51 µM) in test [18]. Besides, the 50% inhibitory concentration (IC50) in test [19] worked out at 5.7 µg/mL (≈ 11.3 µM); in test [20], 5.18 µg/mL (≈ 10.3 µM); in [21], 4.6 µg/mL (≈ 9.15 µM); in [22] it was 4.44 µg/mL (≈ 8.83 µM); in test [23], 4.23 µg/mL (≈ 8.41 µM); in test [24], 9.2 µg/mL (≈ 18.3 µM). The concentration for half-maximal inhibition (IC50) in test [25] was found to be 2.12 µg/mL (≈ 4.22 µM); in [26] it was 21.7 µg/mL (≈ 43.2 µM).
For the compound `O=c1[nH]cc(F)c(=O)[nH]1` [FLUOROURACIL], in [27], the Activity was found to be 23.8%.
On to `COc1ccc([C@H]2COc3cc(O)ccc3C2)c(OC)c1O` [MUCRONULATOL], for which the concentration for half-maximal inhibition (IC50) in [3] is over 50 µg/mL; in [7] it was 10.1 µg/mL (≈ 33.4 µM); in test [9] it was 2.52 µg/mL (≈ 8.34 µM); in test [12], 8.22 µg/mL (≈ 27.2 µM); in [15], 10.2 µg/mL (≈ 33.8 µM); in [16], 2.5 µg/mL (≈ 8.27 µM). In addition, the IC50 was over 50 µg/mL in test [18] and 2.6 µg/mL (≈ 8.6 µM) in test [23].
As to `CC(C)=CC[C@]12C[C@@H]3[C@H](C=C(C)C)[C@](CC=C(C)C)(C1=O)C(=O)[C@](C(=O)c1ccccc1)(C2=O)C3(C)C` [PLUKENETIONE A], the IC50 in test [1] was found to be 14.5 µg/mL (≈ 28.9 µM); in [28], 1.5 µg/mL (≈ 3 µM); in test [4] it was 15.9 µg/mL (≈ 31.8 µM); in [5] it was 13.4 µg/mL (≈ 26.8 µM); in test [8], 1.72 µg/mL (≈ 3.44 µM); in test [9], 16.3 µg/mL (≈ 32.5 µM). Besides, the IC50 amounted to 13.3 µg/mL (≈ 26.6 µM) in [10]; 12 µg/mL (≈ 24 µM) in test [11]; 10 µg/mL (≈ 20 µM) in test [13]; 11.7 µg/mL (≈ 23.3 µM) in test [14]; 32.1 µg/mL (≈ 64.1 µM) in test [16]; 7.6 µg/mL (≈ 15.2 µM) in [17]. Moreover, the IC50 was 12.5 µM in test [37]; 1.5 µg/mL (≈ 3 µM) in [38]; 15 µg/mL (≈ 29.9 µM) in test [18]; 6.53 µg/mL (≈ 13 µM) in test [19]; 14.2 µg/mL (≈ 28.4 µM) in test [20]; 5.28 µg/mL (≈ 10.5 µM) in test [21]. The IC50 came to 12.1 µg/mL (≈ 24.2 µM) in [22]; 12.9 µg/mL (≈ 25.8 µM) in test [23]; 13.3 µg/mL (≈ 26.6 µM) in [24]; 1.98 µg/mL (≈ 3.95 µM) in [25]; 15.7 µg/mL (≈ 31.4 µM) in [26]. Further, the outcome in test [29], in [30], in test [31], in [33], in [35] and in test [39] was Active. In addition, the outcome in test [40] was Active. Also, the Activity in test [32] worked out at 20.6%; in [34], 4.3%; in test [36] it was 52.1%.
